Target: human mGluR5A (Homo sapiens, UniProt P41594)
Experiment: mGluR5 FLIPR Assay
Format: cell-based
Settings: positive modulator activity; HEK293 (ZF) cells with human mGluR5A and rat GLAST; Ca++ response to ~EC10 glutamate

Sequence of human mGluR5A (P41594 21-1180 isoform P41594-2): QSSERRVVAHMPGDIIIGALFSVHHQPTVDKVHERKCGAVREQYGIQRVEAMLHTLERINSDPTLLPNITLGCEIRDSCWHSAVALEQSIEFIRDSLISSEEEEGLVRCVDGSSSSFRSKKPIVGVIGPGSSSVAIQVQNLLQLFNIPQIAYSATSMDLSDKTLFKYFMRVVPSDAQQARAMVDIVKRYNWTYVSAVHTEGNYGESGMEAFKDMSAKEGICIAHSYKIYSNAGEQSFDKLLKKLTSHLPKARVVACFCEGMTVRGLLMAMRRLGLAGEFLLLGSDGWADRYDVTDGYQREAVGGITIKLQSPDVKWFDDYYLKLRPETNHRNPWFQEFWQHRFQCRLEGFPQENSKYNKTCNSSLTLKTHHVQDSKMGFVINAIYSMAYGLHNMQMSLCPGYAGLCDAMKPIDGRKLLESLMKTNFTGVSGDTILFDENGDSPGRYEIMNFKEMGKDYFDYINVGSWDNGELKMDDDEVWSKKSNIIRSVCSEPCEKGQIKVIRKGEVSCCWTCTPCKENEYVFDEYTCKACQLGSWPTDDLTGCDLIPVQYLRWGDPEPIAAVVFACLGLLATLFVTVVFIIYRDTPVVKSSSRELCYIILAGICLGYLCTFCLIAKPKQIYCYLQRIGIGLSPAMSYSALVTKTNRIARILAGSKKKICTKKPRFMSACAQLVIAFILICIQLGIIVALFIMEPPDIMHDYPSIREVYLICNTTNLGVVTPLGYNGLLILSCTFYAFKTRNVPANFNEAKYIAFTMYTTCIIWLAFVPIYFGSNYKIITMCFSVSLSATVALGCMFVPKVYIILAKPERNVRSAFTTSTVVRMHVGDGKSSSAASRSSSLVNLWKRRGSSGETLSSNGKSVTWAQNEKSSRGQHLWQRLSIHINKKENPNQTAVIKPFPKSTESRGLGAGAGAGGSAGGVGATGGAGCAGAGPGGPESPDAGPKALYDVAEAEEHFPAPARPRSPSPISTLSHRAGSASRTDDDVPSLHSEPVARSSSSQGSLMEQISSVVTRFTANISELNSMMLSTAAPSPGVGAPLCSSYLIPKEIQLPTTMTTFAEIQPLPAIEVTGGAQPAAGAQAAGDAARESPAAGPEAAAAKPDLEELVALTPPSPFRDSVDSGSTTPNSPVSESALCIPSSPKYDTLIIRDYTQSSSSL

| SMILES | EC50 [nM] |
| --- | --- |
| COc1cccc([C@H]2OC(=O)N[C@@H]2c2cccc(C#Cc3cccc(C(F)(F)F)c3)c2)c1 [Example 129, (4R,5R)-5-(3-methoxyphenyl)-4-(3-((3-(trifluoromethyl)phenyl)ethynyl)phenyl)oxazolidin-2-one] | > 1000 |
| O=C1N[C@@H](c2cncc(C#Cc3cccnc3)c2)[C@H](c2ccc(F)cc2)O1 (single isomer, unassigned) [Example 42] | > 1000 |
| C[C@@]1(c2cncc(C#Cc3ccccc3)c2)NC(=O)O[C@H]1c1cc(F)ccc1F (single isomer, unassigned) [Example 406] | 100 to 1000 |
| COc1cccc([C@H]2OC(=O)N[C@@H]2c2cccc(C#Cc3ccc(C)nc3)c2)c1 [Example 83, (4R,5R)-5-(3-Methoxyphenyl)-4-(3-((6-methylpyridin-3-yl)ethynyl)phenyl)oxazolidin-2-one] | 100 to 1000 |
| O=C1N[C@H](c2cncc(C#Cc3ccccc3)c2)[C@@H](c2ccc(F)cc2F)O1 [Example 179] | < 100 |
| O=C1N[C@H](c2cncc(C#Cc3cccnc3)c2)[C@@H](c2ccc(F)c(F)c2)O1 [Example 173] | < 100 |
| O=C1N[C@H](c2cc(C#Cc3ccccn3)cnc2F)[C@@H](c2cccc(F)c2)O1 [Example 148, (4R,5R)-4-(2-Fluoro-5-(pyridin-2-ylethynyl)pyridin-3-yl)-5-(3-fluorophenyl)oxazolidin-2-one] | > 1000 |
| O=C1N[C@@H](c2cncc(C#Cc3ccccc3)c2)[C@H](c2ccc(Cl)cc2)O1 (single isomer, unassigned) [Example 359] | 100 to 1000 |

From USRE49735E1 (BRISTOL-MYERS SQUIBB COMPANY, priority 2010, dated 2023)
